18 compounds from US20260297070A1, “CYCLIC [COMPOUND LEFT OUT] WRN INHIBITORS” (Nimbus Wadjet, Inc., priority 2023, published 2026) can be followed below.

Molecules are shown by their SMILES. pIC50: −log10 of the molar value. Some results are limits rather than exact numbers.

In the experiment the target is T1, human Werner helicase (WRN-BV08, Uniprot Q14191, amino acids 517-1235 with L1074F point mutation) (Homo sapiens, UniProt Q14191, L1074F).
T1 construct: Uniprot Q14191, amino acids 517-1235 with L1074F point mutation; TEV-cleavable 8×His (C, cleaved yes); made in house; host or cells: Sf9 insect cells (baculovirus)
T1 sequence (Q14191 with tags, fused parts or gaps L1074F limits assumed): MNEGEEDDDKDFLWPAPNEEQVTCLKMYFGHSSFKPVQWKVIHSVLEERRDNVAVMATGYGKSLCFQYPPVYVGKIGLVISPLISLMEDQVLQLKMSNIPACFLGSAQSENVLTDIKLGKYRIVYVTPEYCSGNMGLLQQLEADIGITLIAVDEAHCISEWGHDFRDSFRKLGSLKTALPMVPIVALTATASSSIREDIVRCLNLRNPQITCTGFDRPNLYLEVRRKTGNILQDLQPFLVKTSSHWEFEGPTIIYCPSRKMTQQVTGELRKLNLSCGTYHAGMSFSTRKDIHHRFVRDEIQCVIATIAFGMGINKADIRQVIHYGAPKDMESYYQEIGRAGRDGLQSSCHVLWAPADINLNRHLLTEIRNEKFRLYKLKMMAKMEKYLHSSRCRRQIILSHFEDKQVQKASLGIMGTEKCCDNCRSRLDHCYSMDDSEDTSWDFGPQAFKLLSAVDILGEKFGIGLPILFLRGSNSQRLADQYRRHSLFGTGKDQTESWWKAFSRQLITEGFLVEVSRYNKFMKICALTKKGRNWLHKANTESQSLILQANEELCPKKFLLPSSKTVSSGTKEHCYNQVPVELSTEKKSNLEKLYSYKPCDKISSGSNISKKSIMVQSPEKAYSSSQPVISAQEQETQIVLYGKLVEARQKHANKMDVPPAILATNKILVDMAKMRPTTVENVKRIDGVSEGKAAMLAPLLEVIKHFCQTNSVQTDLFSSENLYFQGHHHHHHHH
In words: WRN (BV08) ADP-Glo Assay. Format: biochemical. The following applies: 0.15 nM WRN, 5 μM ATP, 0.1 nM DNA duplex, 15 min preincubation, 60 min at 25° C., pH 7.5, 1% DMSO; read-out: ADP-Glo_hWRN_IC50. The procedure, abridged: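 Percent inhibition was normalised to DMSO (max) and 20 μM NSC-617145 (min) controls from ADP-Glo luminescence, and IC50 values came from a four-parameter fit. The reaction ran 60 min at 25 °C with 0.15 nM WRN, 5 μM ATP and 0.1 nM duplex DNA.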
(In general: In ADP-Glo the light output rises with the ADP produced.)
As to `O=C(Cc1ccc(S(F)(F)(F)(F)F)cc1)N(Cc1nc(C2CCC2)cs1)C1C=CS(=O)(=O)C1` (stereo not drawn) [I-14, N-[(4-cyclobutyl-1,3-thiazol-2-yl)methyl]-N-(1,1-dioxo-2,3-dihydro-1lambda6-thiophen-3-yl)-2-[4-(pentafluoro-lambda6-sulfanyl)phenyl]acetamide], the pIC50 is greater than 6.30. With `CC(C)(O)c1cc(CN(C(=O)Cn2cc(-c3ccc(F)cc3)cn2)[C@@H]2C=CS(=O)(=O)C2)ccn1` [I-15, N-[(3R)-1,1-dioxo-2,3-dihydro-1lambda6-thiophen-3-yl]-2-[4-(4-fluorophenyl)-1H-pyrazol-1-yl]-N-{[2-(2-hydroxypropan-2-yl)pyridin-4-yl]methyl}acetamide], the pIC50 is greater than 6.30. The figure for `CC(C)(O)c1cc(CN(C(=O)Cc2ccc(S(F)(F)(F)(F)F)cc2)[C@@H]2C=CS(=O)(=O)C2)ccn1` [I-16, (R)—N-(1,1-dioxido-2,3-dihydrothiophen-3-yl)-N-((2-(2-hydroxypropan-2-yl)pyridin-4-yl)methyl)-2-(4-(pentafluoro-λ^6-sulfaneyl)phenyl)acetamide] is greater than 6.30; for `COc1cc(CN(C(=O)Cc2ccc(S(F)(F)(F)(F)F)cc2)[C@@H]2C=CS(=O)(=O)C2)ccn1` [I-17, N-[(3R)-1,1-dioxo-2,3-dihydro-1lambda6-thiophen-3-yl]-N-[(2-methoxypyridin-4-yl)methyl]-2-[4-(pentafluoro-lambda6-sulfanyl)phenyl]acetamide] it is greater than 6.30. The figure for `COC(C(=O)N(Cc1ccnc(C(C)(C)O)c1)C1C=CS(=O)(=O)C1)c1ccc(-c2ccc(F)c(F)c2)cc1F` (stereo not drawn) [I-18, N-(1,1-dioxo-2,3-dihydro-1lambda6-thiophen-3-yl)-N-{[2-(2-hydroxypropan-2-yl)pyridin-4-yl]methyl}-2-methoxy-2-{3,3′,4′-trifluoro-[1,1′-biphenyl]-4-yl}acetamide] is greater than 6.30; for `CC(C)(O)c1cc(CN(C(=O)Cc2ccc(-c3cc(F)c(F)c(F)c3)cc2F)C2C=CS(=O)(=O)C2)ccn1` (stereo not drawn) [I-19, N-(1,1-dioxo-2,3-dihydro-1lambda6-thiophen-3-yl)-N-{[2-(2-hydroxypropan-2-yl)pyridin-4-yl]methyl}-2-{3,3′,4′,5′-tetrafluoro-[1,1′-biphenyl]-4-yl}acetamide] it is greater than 6.30. Regarding `COCCN(C)C(=O)C(C(=O)N(Cc1ccnc(C(C)(C)O)c1)[C@@H]1C=CS(=O)(=O)C1)c1ccc(-c2ccc(F)c(F)c2)cc1F` (stereo partly drawn) [I-20, N′-[(3R)-1,1-dioxo-2,3-dihydro-1lambda6-thiophen-3-yl]-N′-{[2-(2-hydroxypropan-2-yl)pyridin-4-yl]methyl}-N-(2-methoxyethyl)-N-methyl-2-{3,3′,4′-trifluoro-[1,1′-biphenyl]-4-yl}propanediamide], the pIC50 is greater than 6.30. The figure for `CN(C)C(=O)C(C(=O)N(Cc1ccnc(C(C)(C)O)c1)C1C=CS(=O)(=O)C1)c1ccc(-c2ccc(F)cc2)cc1F` (stereo not drawn) [I-21, 2-{3,4′-difluoro-[1,1′-biphenyl]-4-yl}-N-(1,1-dioxo-2,3-dihydro-1lambda6-thiophen-3-yl)-N-{[2-(2-hydroxypropan-2-yl)pyridin-4-yl]methyl}-N′,N′-dimethylpropanediamide] is greater than 6.30.

In the case of `COc1cc(CN(C(=O)Cc2ccc(S(F)(F)(F)(F)F)cc2F)C2C=CS(=O)(=O)C2)ccn1` (stereo not drawn) [I-22, N-(1,1-dioxido-2,3-dihydrothiophen-3-yl)-2-(2-fluoro-4-(pentafluoro-λ^6-sulfaneyl)phenyl)-N-((2-methoxypyridin-4-yl)methyl)acetamide], the pIC50 was greater than 6.30.

As to `CN(C)C(=O)C(C(=O)N(Cc1nc(C2CC2)cs1)C1C=CS(=O)(=O)C1)c1ccc(-c2ccc(F)cc2)cc1F` (stereo not drawn) [I-23, N′-[(4-cyclopropyl-1,3-thiazol-2-yl)methyl]-2-{3,4′-difluoro-[1,1′-biphenyl]-4-yl}-N′-(1,1-dioxo-2,3-dihydro-1lambda6-thiophen-3-yl)-N,N-dimethylpropanediamide], the pIC50 was greater than 6.30. The figure for `CN(C)C(=O)C(C(=O)N(Cc1ccnc(C(C)(C)O)c1)C1C=CS(=O)(=O)C1)c1ccc(-c2ccc(F)c(F)c2)cc1F` (stereo not drawn) [I-24, N′-(1,1-dioxo-2,3-dihydro-1lambda6-thiophen-3-yl)-N′-{[2-(2-hydroxypropan-2-yl)pyridin-4-yl]methyl}-N,N-dimethyl-2-{3,3′,4′-trifluoro-[1,1′-biphenyl]-4-yl}propanediamide] is greater than 6.30; for `CN(C)C(=O)C(C(=O)N(Cc1nc(C2CC2)cs1)C1C=CS(=O)(=O)C1)c1ccc(-c2ccc(F)c(F)c2)cc1F` (stereo not drawn) [I-25, N′-[(4-cyclopropyl-1,3-thiazol-2-yl)methyl]-N′-(1,1-dioxo-2,3-dihydro-1lambda6-thiophen-3-yl)-N,N-dimethyl-2-{3,3′,4′-trifluoro-[1,1′-biphenyl]-4-yl}propanediamide] it is greater than 6.30. For `COc1cc(CN(C(=O)Cn2cc(-c3ccc(F)cc3)cn2)[C@@H]2C=CS(=O)(=O)C2)ccn1` [I-26, N-[(3R)-1,1-dioxo-2,3-dihydro-1lambda6-thiophen-3-yl]-2-[4-(4-fluorophenyl)-1H-pyrazol-1-yl]-N-[(2-methoxypyridin-4-yl)methyl]acetamide], the pIC50 is greater than 6.30. The value for `COC(C(=O)N(Cc1ccnc(C(C)(C)O)c1)C1C=CS(=O)(=O)C1)c1ccc(-c2ccc(F)cc2)cc1F` (stereo not drawn) [I-28, 2-{3,4′-difluoro-[1,1′-biphenyl]-4-yl}-N-(1,1-dioxo-2,3-dihydro-1lambda6-thiophen-3-yl)-N-{[2-(2-hydroxypropan-2-yl)pyridin-4-yl]methyl}-2-methoxyacetamide] was greater than 6.30; that for `COc1cc(CN(C(=O)Cc2ccc(S(F)(F)(F)(F)F)cc2)C2C=CS(=O)(=O)C2)ccn1` (stereo not drawn) [I-29, N-(1,1-dioxo-2,3-dihydro-1lambda6-thiophen-3-yl)-N-[(2-methoxypyridin-4-yl)methyl]-2-[4-(pentafluoro-lambda6-sulfanyl)phenyl]acetamide] was greater than 6.30; that for `COCCOC(C(=O)N(Cc1ccnc(C(C)(C)O)c1)[C@@H]1C=CS(=O)(=O)C1)c1ccc(-c2ccc(F)c(F)c2)cc1F` (stereo partly drawn) [I-30, N-[(3R)-1,1-dioxo-2,3-dihydro-1lambda6-thiophen-3-yl]-N-{[2-(2-hydroxypropan-2-yl)pyridin-4-yl]methyl}-2-(2-methoxyethoxy)-2-{3,3′,4′-trifluoro-[1,1′-biphenyl]-4-yl}acetamide] was greater than 6.30. For `CC(C)(O)c1cc(CN(C(=O)Cc2ccc(-c3ccc(F)c(F)c3)cc2F)C2C=CS(=O)(=O)C2)ccn1` (stereo not drawn) [I-32, N-(1,1-dioxo-2,3-dihydro-1lambda6-thiophen-3-yl)-N-{[2-(2-hydroxypropan-2-yl)pyridin-4-yl]methyl}-2-{3,3′,4′-trifluoro-[1,1′-biphenyl]-4-yl}acetamide], the pIC50 is greater than 6.30. The value for `CN(C)C(=O)C(C(=O)N(Cc1ccnc(C(C)(C)O)c1)C1C=CS(=O)(=O)C1)c1ccc(-c2ccc(F)cc2)cc1` (stereo not drawn) [I-34, N-(1,1-dioxo-2,3-dihydro-1lambda6-thiophen-3-yl)-2-{4′-fluoro-[1,1′-biphenyl]-4-yl}-N-{[2-(2-hydroxypropan-2-yl)pyridin-4-yl]methyl}-N′,N′-dimethylpropanediamide] was greater than 6.30.
